Patent US20240415920A1, “PEPTIDE HAVING ACTIVITY OF PREVENTING HAIR LOSS OR PROMOTING HAIR GROWTH, AND USE THEREOF” (CAREGEN CO., LTD., priority 2021, published 2024)

Tests used:
Assay type in all cases: cell-based, human
β-catenin = assay: Western blotting of β-catenin moved into the nucleus of HHFDPC; conditions: peptide 10 nM, 100 nM, 1 μM, 24 hours, FIG. 3
Procedure: In addition, in addition to p-AKT and p-ERK, in order to confirm the activation of β-catenin, which is known to affect cell proliferation and differentiation, whether β-catenin moved into the nucleus was confirmed through Western blotting. Specifically, the HHFDPC as in [Experiment Example 1-1] was seeded in a 6-well culture plate at an amount of 4λ10^5 cells/well, cultured in MSC complete medium (mesenchymal stem cell complete media) for 24 hours. Next, the medium was replaced with serum free MSC complete medium and cultured again for 24 hours. Then, the HHFDPC was treated with the peptide of SEQ ID NO: 1 prepared in the Preparation Example at concentrations of 10 nM, 100 nM, and 1 μM, respectively, and cultured at 37° C. for 24 hours. As a positive control, minoxidil was treated at a concentration of 1 μM, and as a negative control, HHFDPC without any treatment was used. After washing with PBS, proteins in the nucleus were isolated using a nuclear protein extraction kit (Thermo scientific, USA). After electrophoresis using a 10% SDS-PAGE gel, it was transferred to a PVDF membrane and blocked using 5% skim milk at room temperature for 30 minutes. […] After washing again with 0.1% PBS-T (0.1% Tween-20 in PBS) three times for 15 minutes each, β-catenin was detected by treatment with ECL solution (GE Healthcare, USA).

Keratin 5 = assay: RT-PCR of Keratin 5 expression in HHORSC; conditions: peptide 10 nM, 100 nM, 1 μM, 72 hours, FIG. 6
Procedure: (§1) Using the peptide of the present invention consisting of the amino acid sequence of SEQ ID NO: 1 prepared according to Preparation Example above, it was confirmed whether it promotes the activity of outer root sheath cells, a type of cell that forms hair follicles.
(§2) Specifically, HHORSC (human hair outer root sheath cell, Sciencell, USA) was seeded in a 6-well culture plate at 4×10^5 cells/well and then cultured in MSC complete medium (mesenchymal stem cell complete media) for 24 hours. Next, the medium was replaced with serum free MSC complete medium and cultured again for 24 hours. Then, the HHORSC was treated with the peptide of Preparation Example consisting of amino acid sequence of SEQ ID NO: 1 at concentrations of 10 nM, 100 nM, and 1 μM, respectively, and cultured at 37° C. for 72 hours. […] Then, CDNA was synthesized using a cDNA synthesis kit (enzynomics, Korea) by quantification using nano drop, and PCR was performed using primers for Ha3-II, Keratin 5, Keratin 14, and Keratin 19 (the base sequences of each primer are shown in Table 3 below) and PCR premix (enzynomics, Korea). Electrophoresis was performed on a 1.5% agarose gel, and the mRNAs of Ha3-II, Keratin 5, Keratin 14, and Keratin 19 were detected using a band analysis system (Bio-Rad gel image system).

HHFDPC = assay: Proliferation of dermal papilla cells (MTT, absorbance at 540 nm); conditions: 72 hours, FIG. 1
Procedure: While culturing human hair follicle dermal dermal papilla cells (HHFDPC), the absorbance was measured after treatment with the peptide of the present invention to confirm whether there was an effect of promoting the proliferation of the HHFDPC dermal papilla cells.
Specifically, HHFDPC (Sciencell, USA) was seeded at 4λ10^3 cells/well in a 96-well culture plate, cultured in MSC complete medium stem (mesenchymal cell complete media, Sciencell, USA) for 24 hours, and then the medium was replaced with serum free MSC complete medium and cultured for another 24 hours. Then, the HHFDPC was treated with the peptide from Preparation Example consisting of amino acid sequence of SEQ ID NO: 1 at concentrations of 10 nM, 100 nM, and 1 μM, respectively, and cultured at 37° C. for 72 hours. As a positive control, minoxidil was treated at a concentration of 1 μM, and as a negative control, HHFDPC without any treatment was used. Then, 10 μl of 5 mg/mL MTT solution was added and cultured in a 37° C. CO2 incubator for 4 hours to stain the cells. After removing the medium, the cells were treated with 100 μl of DMSO and shaken for 10 minutes, and the number of HHFDPC cells was confirmed by measuring absorbance at a wavelength of 540 nm using a spectrophotometer.

p-AKT = assay: Western blotting of phosphorylated AKT in HHFDPC; conditions: peptide 10 nM, 100 nM, 1 μM, 24 hours, FIG. 2
From the text: (§3) In the HHFDPC treated with the peptide of the present invention, changes in related factors that affect cell proliferation or differentiation were confirmed to determine whether the peptide of the present invention could promote proliferation and differentiation of HHFDPC by increasing them.
(§4) First, phosphorylated forms of AKT and ERK, which act as signaling molecules related to the proliferation of HHFDPC, were confirmed through Western blotting. Specifically, HHFDPC as in [Experiment Example 1-1] above was seeded at 4λ10^5 cells/well in a 6-well culture plate, cultured in MSC complete medium (mesenchymal stem cell complete media) for 24 hours, and then the medium was replaced with serum free MSC complete medium and cultured for another 24 hours. Then, the HHFDPC was treated with the peptide of SEQ ID NO: 1 prepared in the Preparation Example at concentrations of 10 nM, 100 nM, and 1 μM, respectively, and cultured at 37° C. for 24 hours. As a positive control, minoxidil was treated at a concentration of 1 μM, and as a negative control, HHFDPC without any treatment was used. Then, Western blotting was performed to detect phosphorylated AKT and phosphorylated ERK. […] After washing again with 0.1% PBS-T (0.1% Tween-20 in PBS) three times for 15 minutes each, p-AKT and p-ERK were detected by treatment with ECL solution (GE Healthcare, USA).

Keratin 19 = assay: RT-PCR of Keratin 19 expression in HHORSC; conditions: peptide 10 nM, 100 nM, 1 μM, 72 hours, FIG. 6
Procedure: as §1, §2

DKK-1 protein = assay: Western blotting of DKK-1 protein in DHT-treated HHFDPC; conditions: HHFDPC with DHT 100 nM, peptide 10 nM, 1 μM, 24 hours, FIG. 5
Procedure: DKK-1 protein (dickkopf-related protein 1) is a hair loss-related protein known to be highly expressed in individuals with hair loss, especially male pattern hair loss, and its expression is known to be promoted by hormones such as DHT (Dihydrotestosterone). Accordingly, the expression of DKK-1 protein was induced by treating HHFDPC cells with DHT together with the peptide according to the Preparation Example of the present invention, and then the expression level of DKK-1 was measured through Western blotting to determine whether there was an effect of suppressing the expression of DKK-1 protein.
Specifically, HHFDPC as in [Experiment Example 1-1] was seeded in a 6-well culture plate at 4×10^5 cells/well and then cultured in MSC complete medium (mesenchymal stem cell complete media) for 24 hours. Next, the medium was replaced with serum free MSC complete medium and cultured again for 24 hours. In addition, the HHFDPC was treated with the peptide of SEQ ID NO: 1 prepared in Preparation Example at concentrations of 10 nM, 100 nM, and 1 μM, respectively, and at this time, DHT, an expression inducer of DKK-1 protein, was simultaneously treated at a concentration of 100 nM and then cultured at 37° C. for 24 hours. […] After washing again with 0.1% PBS-T (0.1% Tween-20 in PBS) three times for 15 minutes each, DKK-1 protein was detected by treatment with ECL solution (GE Healthcare, USA).

LEF-1 = assay: RT-PCR of LEF-1 expression in HHFDPC; conditions: peptide 10 nM, 100 nM, 1 μM, 24 hours, FIG. 4
Procedure: (§5) Furthermore, in order to determine whether the β-catenin moves to the nucleus and is s activated to affect cell proliferation and differentiation, whether the expression of LEF-1 and cyclin D1 (cyclin D1), which act as downstream factors, increases with β-catenin activation was confirmed through RT-PCR. Specifically, in the same manner as the previous Western blotting experiment, HHFDPC cells were cultured, treated with the peptides of the Preparation Example of the present invention at concentrations of 10 nM, 100 nM, and 1 μM, respectively, and cultured at 37° C. for 24 hours. After washing the cells with PBS, RNA was isolated by treating them with 300 […] of easy blue (intron, Korea). Then, cDNA was synthesized using a cDNA synthesis kit (enzynomics, Korea) by quantifying it with nano drop, and PCR was performed using primers for LEF-1 and cyclin D1 (base sequences of the primers are listed in Table 2) and PCR premix (enzynomics, Korea). Electrophoresis was performed on a 1.5% agarose gel, and then the mRNA of LEF-1 and cyclin D1 was detected using a band analysis system (Bio-Rad gel image system).

Ha3-II = assay: RT-PCR of Ha3-II expression in HHORSC; conditions: peptide 10 nM, 100 nM, 1 μM, 72 hours, FIG. 6
Procedure: as §1, §2

Keratin 14 = assay: RT-PCR of Keratin 14 expression in HHORSC; conditions: peptide 10 nM, 100 nM, 1 μM, 72 hours, FIG. 6
Procedure: as §1, §2

p-ERK = assay: Western blotting of phosphorylated ERK in HHFDPC; conditions: peptide 10 nM, 100 nM, 1 μM, 24 hours, FIG. 2
From the text: as §3, §4

cyclin D1 = assay: RT-PCR of cyclin D1 expression in HHFDPC; conditions: peptide 10 nM, 100 nM, 1 μM, 24 hours, FIG. 4
Procedure: as §5

MSX2 = assay: RT-PCR of MSX2 expression in HHGMC; conditions: peptide 10 nM, 100 nM, 1 μM, 72 hours, FIG. 7
Procedure: as §1, with “promoted the expression of transcription factors related to” for “promotes”, “germinal matrix” for “outer root sheath”, “hair.” for “hair follicles.”
Specifically, HHGMC (human hair germinal matrix cell, Sciencell, USA) was seeded in a 6-well culture plate at 4×10^5 cells/well and then cultured in MSC complete medium (mesenchymal stem cell complete media) for 24 hours. Next, the medium was replaced with serum free MSC complete medium and cultured again for 24 hours. Then, the HHGMC was treated with the peptide of SEQ ID NO: 1 prepared in the Preparation Example at concentrations of 10 nM, 100 nM, and 1 μM, respectively, and cultured at 37° C. for 72 hours. As a positive control, EGF was treated at a concentration of 50 nM, and as a negative control, HHGMC without any treatment was used. […] Next, cDNA was synthesized using a cDNA synthesis kit (enzynomics, Korea) by quantification using nano drop, and PCR was performed using primers for MSX2 consisting of base sequences according to Table 4 below and PCR premix (enzynomics, Korea). Electrophoresis was performed on a 1.5% agarose gel, and MSX2 mRNA was detected using a band analysis system (Bio-Rad gel image system).

GCGLFVAAC [peptide of the present invention]
β-catenin migration to the nucleus compared to the control group not treated with the peptide (β-catenin; HHFDPC nuclear protein, Western blotting): migration due to activation of β-catenin increased
concentration dependence of β-catenin activation (β-catenin; HHFDPC): further promoted depending on the concentration
Keratin 5 mRNA amount compared to the control group without treatment (Keratin 5): the amount of mRNA increased further
absorbance (cell proliferation) compared to the untreated control group (HHFDPC; peptide 10 nM, 100 nM, 1 μM): the absorbance was measured to be higher
proliferation promotion effect compared to the positive control group (minoxidil 1 μM) (HHFDPC; peptide 1 μM): showed a better proliferation promotion effect than the positive control group
phosphorylation of AKT (p-AKT) compared to the control group not treated with the peptide (p-AKT): phosphorylation was found to be increased
Keratin 19 mRNA amount compared to the control group without treatment (Keratin 19): the amount of mRNA increased further
concentration dependence of the DKK-1 expression level (DKK-1 protein): decreased depending on the concentration
amount of DKK-1 protein compared to the negative control group (DHT only) (DKK-1 protein; Western blotting): found to be reduced
LEF-1 mRNA amount compared to the control group without any treatment (LEF-1): the amount of mRNA increased further
Ha3-II mRNA amount compared to the control group without treatment (Ha3-II): the amount of mRNA increased further
Keratin 14 mRNA amount compared to the control group without treatment (Keratin 14): the amount of mRNA increased further
phosphorylation of ERK (p-ERK) compared to the control group not treated with the peptide (p-ERK): phosphorylation was found to be increased
cyclin D1 mRNA amount compared to the control group without any treatment (cyclin D1): the amount of mRNA increased further
MSX2 mRNA amount compared to the untreated control group (MSX2): the amount of mRNA increased further
